Test results taken from ChEMBL document CHEMBL3596165, “Synthesis, structure elucidation and identification of antiproliferative activities of a novel class of thiophene bioisosteres bearing the privileged 7,8-dihydroimidazo[2,1-c][1,2,4]triazin-4(6H)-one scaffold” (Bioorg Med Chem, 2015).
The source made the active and inactive calls. The rule behind the calls is not given here.

Columns and labels:
[1] = test system: Vero; test: Antiproliferative activity against African green monkey Vero cells at 50 ug/ml after 24 hrs by BrdUrd incorporation assay; type: cell-based; conditions: chlorocebus sabaeus
[2] = Antiproliferative activity against African green monkey Vero cells at 50 ug/ml after 48 hrs by BrdUrd incorporation assay; type: cell-based; conditions: chlorocebus sabaeus, read-out: GI
[3] = Antiproliferative activity against African green monkey Vero cells at 50 ug/ml after 72 hrs by BrdUrd incorporation assay; type: cell-based; conditions: chlorocebus sabaeus, read-out: GI
[4] = test system: A549; test: Antiproliferative activity against human A549 cells at 50 ug/ml after 24 hrs by BrdUrd incorporation assay; type: functional; conditions: A549, 24 h, read-out: GI
[5] = test system: A549; test: Antiproliferative activity against human A549 cells at 50 ug/ml after 48 hrs by BrdUrd incorporation assay; type: functional; conditions: A549, 48 h, read-out: GI
[6] = test system: A549; test: Antiproliferative activity against human A549 cells at 50 ug/ml after 72 hrs by BrdUrd incorporation assay; type: functional; conditions: A549, 72 h, read-out: GI
[7] = test system: HeLa; test: Antiproliferative activity against human HeLa cells at 50 ug/ml after 24 hrs by BrdUrd incorporation assay; type: functional; conditions: read-out: GI
[8] = test system: HeLa; test: Antiproliferative activity against human HeLa cells at 50 ug/ml after 48 hrs by BrdUrd incorporation assay; type: functional; conditions: read-out: GI
[9] = test system: HeLa; test: Antiproliferative activity against human HeLa cells at 50 ug/ml after 72 hrs by BrdUrd incorporation assay; type: functional; conditions: read-out: GI
[10] = test system: T47D; test: Antiproliferative activity against human T47D cells at 50 ug/ml after 24 hrs by BrdUrd incorporation assay; type: functional; conditions: read-out: GI
[11] = test system: T47D; test: Antiproliferative activity against human T47D cells at 50 ug/ml after 48 hrs by BrdUrd incorporation assay; type: functional; conditions: read-out: GI
[12] = test system: T47D; test: Antiproliferative activity against human T47D cells at 50 ug/ml after 72 hrs by BrdUrd incorporation assay; type: functional; conditions: read-out: GI
[13] = test system: TOV112D; test: Antiproliferative activity against human TOV112D cells at 50 ug/ml after 24 hrs by BrdUrd incorporation assay; type: functional; conditions: read-out: GI
[14] = test system: TOV112D; test: Antiproliferative activity against human TOV112D cells at 50 ug/ml after 48 hrs by BrdUrd incorporation assay; type: functional; conditions: read-out: GI
[15] = test system: TOV112D; test: Antiproliferative activity against human TOV112D cells at 50 ug/ml after 72 hrs by BrdUrd incorporation assay; type: functional; conditions: read-out: GI
[16] = test system: Vero; test: Antiproliferative activity against African green monkey Vero cells after 24 hrs by BrdUrd incorporation assay; type: cell-based; conditions: chlorocebus sabaeus
[17] = test system: Vero; test: Antiproliferative activity against African green monkey Vero cells after 48 hrs by BrdUrd incorporation assay; type: cell-based; conditions: Chlorocebus sabaeus
[18] = test system: Vero; test: Antiproliferative activity against African green monkey Vero cells after 72 hrs by BrdUrd incorporation assay; type: cell-based; conditions: Chlorocebus sabaeus
[19] = test system: A549; test: Antiproliferative activity against human A549 cells after 24 hrs by BrdUrd incorporation assay; type: functional, cell-based; conditions: A549, 24 h
[20] = test system: A549; test: Antiproliferative activity against human A549 cells after 48 hrs by BrdUrd incorporation assay; type: functional, cell-based; conditions: A549, 48 h
[21] = test system: A549; test: Antiproliferative activity against human A549 cells after 72 hrs by BrdUrd incorporation assay; type: functional, cell-based; conditions: A549, 72 h
[22] = test system: HeLa; test: Antiproliferative activity against human HeLa cells after 24 hrs by BrdUrd incorporation assay; type: functional, cell-based
[23] = test system: HeLa; test: Antiproliferative activity against human HeLa cells after 48 hrs by BrdUrd incorporation assay; type: functional, cell-based
[24] = test system: HeLa; test: Antiproliferative activity against human HeLa cells after 72 hrs by BrdUrd incorporation assay; type: functional, cell-based
[25] = test system: T47D; test: Antiproliferative activity against human T47D cells after 24 hrs by BrdUrd incorporation assay; type: functional, cell-based
[26] = test system: T47D; test: Antiproliferative activity against human T47D cells after 48 hrs by BrdUrd incorporation assay; type: functional, cell-based
[27] = test system: T47D; test: Antiproliferative activity against human T47D cells after 72 hrs by BrdUrd incorporation assay; type: functional, cell-based
[28] = test system: TOV112D; test: Antiproliferative activity against human TOV112D cells after 24 hrs by BrdUrd incorporation assay; type: functional, cell-based
[29] = test system: TOV112D; test: Antiproliferative activity against human TOV112D cells after 48 hrs by BrdUrd incorporation assay; type: functional, cell-based
[30] = test system: TOV112D; test: Antiproliferative activity against human TOV112D cells after 72 hrs by BrdUrd incorporation assay; type: functional, cell-based
[31] = test system: HeLa; test: Induction of apoptosis in human HeLa cells at 10 ug/ml after 72 hrs by fluorescence microscopic analysis; type: functional
[32] = test system: HeLa; test: Induction of necrosis in human HeLa cells at 10 ug/ml after 72 hrs by fluorescence microscopic analysis; type: functional
[33] = test system: T47D; test: Induction of apoptosis in human T47D cells at 10 ug/ml after 72 hrs by fluorescence microscopic analysis; type: functional, cell-based
[34] = test system: T47D; test: Induction of necrosis in human T47D cells at 10 ug/ml after 72 hrs by fluorescence microscopic analysis; type: functional, cell-based
[35] = test system: Vero; test: Induction of apoptosis in African green monkey Vero cells at 10 ug/ml after 72 hrs by fluorescence microscopic analysis; type: functional, cell-based; conditions: Chlorocebus sabaeus
[36] = test system: Vero; test: Induction of necrosis in African green monkey Vero cells at 10 ug/ml after 72 hrs by fluorescence microscopic analysis; type: functional, cell-based; conditions: Chlorocebus sabaeus
[37] = test system: Vero; test: Antiproliferative activity against African green monkey Vero cells at 100 ug/ml after 24 hrs by BrdUrd incorporation assay; type: cell-based; conditions: chlorocebus sabaeus
[38] = Antiproliferative activity against African green monkey Vero cells at 100 ug/ml after 48 hrs by BrdUrd incorporation assay; type: cell-based; conditions: chlorocebus sabaeus, read-out: GI
[39] = Antiproliferative activity against African green monkey Vero cells at 100 ug/ml after 72 hrs by BrdUrd incorporation assay; type: cell-based; conditions: chlorocebus sabaeus, read-out: GI
[40] = test system: A549; test: Antiproliferative activity against human A549 cells at 100 ug/ml after 24 hrs by BrdUrd incorporation assay; type: functional; conditions: A549, 24 h, read-out: GI
[41] = test system: A549; test: Antiproliferative activity against human A549 cells at 100 ug/ml after 48 hrs by BrdUrd incorporation assay; type: functional; conditions: A549, 48 h, read-out: GI
[42] = test system: A549; test: Antiproliferative activity against human A549 cells at 100 ug/ml after 72 hrs by BrdUrd incorporation assay; type: functional; conditions: A549, 72 h, read-out: GI
[43] = test system: HeLa; test: Antiproliferative activity against human HeLa cells at 100 ug/ml after 24 hrs by BrdUrd incorporation assay; type: functional; conditions: read-out: GI
[44] = test system: HeLa; test: Antiproliferative activity against human HeLa cells at 100 ug/ml after 48 hrs by BrdUrd incorporation assay; type: functional; conditions: read-out: GI
[45] = test system: HeLa; test: Antiproliferative activity against human HeLa cells at 100 ug/ml after 72 hrs by BrdUrd incorporation assay; type: functional; conditions: read-out: GI
[46] = test system: T47D; test: Antiproliferative activity against human T47D cells at 100 ug/ml after 24 hrs by BrdUrd incorporation assay; type: functional; conditions: read-out: GI
[47] = test system: T47D; test: Antiproliferative activity against human T47D cells at 100 ug/ml after 48 hrs by BrdUrd incorporation assay; type: functional; conditions: read-out: GI
[48] = test system: T47D; test: Antiproliferative activity against human T47D cells at 100 ug/ml after 72 hrs by BrdUrd incorporation assay; type: functional; conditions: read-out: GI

In the case of `O=c1c(-c2cccs2)nnc2n1CCN2c1ccc(Cl)c(Cl)c1`, the “growth inhibition (GI)” value [1] is reported as 25%, the inhibition at 48 h, 50 ug/ml [2] is reported as 50% and the inhibition at 72 h, 50 ug/ml [3] is reported as 90%. The inhibition of growth at 50 µg/mL [4] was 90%, the inhibition of growth at 50 µg/mL [5] was 100% and the inhibition of growth at 50 µg/mL [6] was 100%. For the same compound, the inhibition of growth at 50 µg/mL [7] was 50%, the inhibition of growth at 50 µg/mL [8] was 90% and the inhibition of growth at 50 µg/mL [9] was 100%. The inhibition of growth at 50 µg/mL [10] was 90%, the inhibition of growth at 50 µg/mL [11] was 100% and the inhibition of growth at 50 µg/mL [12] was 100%. For the same compound, the inhibition of growth at 50 µg/mL [13] was 90%, the inhibition of growth at 50 µg/mL [14] was 100% and the inhibition of growth at 50 µg/mL [15] was 100%. The IC50 [16] was greater than 140 µM, the IC50 [17] was 140 µM and the IC50 [18] was 80 µM. The IC50 [19] was 80 µM, the IC50 [20] was 70 µM and the IC50 [21] was 70 µM. The IC50 [22] was 140 µM, the IC50 [23] was 80 µM and the IC50 [24] was 70 µM. The IC50 [25] was 80 µM, the IC50 [26] was 70 µM and the IC50 [27] was 70 µM. For the same compound, the IC50 [28] was 80 µM, the IC50 [29] was 70 µM and the IC50 [30] was 70 µM. For the same compound, the Activity [31] was 5%, the Activity [32] was 95% and the Activity [33] was “Active”. The Activity [34] was “Active”, the Activity [35] was “Active” and the Activity [36] was “Active”.

With `Nc1nc2[nH]cc(CCc3ccc(C(=O)N[C@@H](CCC(=O)O)C(=O)O)cc3)c2c(=O)[nH]1` [PEMETREXED] the “growth inhibition (GI)” value [37] was 5%, the inhibition at 48 h, 100 ug/ml [38] was 10% and the inhibition at 72 h, 100 ug/ml [39] was 20%. The inhibition of growth at 100 µg/mL [40] was 10%, the inhibition of growth at 100 µg/mL [41] was 30% and the inhibition of growth at 100 µg/mL [42] was 50%. The inhibition of growth at 100 µg/mL [43] was 5%, the inhibition of growth at 100 µg/mL [44] was 10% and the inhibition of growth at 100 µg/mL [45] was 20%. For the same compound, the inhibition of growth at 100 µg/mL [46] was 10%, the inhibition of growth at 100 µg/mL [47] was 20% and the inhibition of growth at 100 µg/mL [48] was 30%.
